Results taken from US12617779B2, “Self degradation-type CDK9 inhibitor prodrug and liposome encapsulating same” (Sumitomo Pharma Co., Ltd., priority 2021, dated 2026).

Experiment: Evaluation of conversion rate to active form in buffer solution (Experimental Example 1)
Type: physicochemical
Protocol: For Examples 1 to 16 and Comparative Examples 1 to 14, the attrition rate of the test compound and the conversion rate of the test compound to Alvocidib in a buffer solution were calculated by the following method.
Examples 1 to 16 and Comparative Examples 1 to 14 were each left in buffer solutions adjusted to pH 5.0, 5.5, 6.0, 6.5, 7.0 and 7.4, respectively, at a concentration of 25 umol/L at 37° C. After 0, 0.5, 1, 2 and 3 hours, the residual rates of the compounds of Examples […] and the production rate of Alvocidib were determined by HPLC.
The buffer solutions used at each pH are as follows. • pH 5.0: 50 mM citrate buffer solution (pH 5.0) • pH 5.5: 50 mM citrate buffer solution (pH 5.5) • pH 6.0: 50 mM phosphate buffer solution (pH 6.0) • pH 6.5: 50 mM phosphate buffer solution (pH 6.5) • pH 7.0: 50 mM phosphate buffer solution (pH 7.0) • pH 7.4: 50 mM phosphate buffer solution (pH 7.4)
The measurement conditions for HPLC are as follows.

Structure (SMILES): CNC(=O)Oc1cc(O)c2c(=O)cc(-c3ccccc3Cl)oc2c1[C@H]1CCN(C)C[C@H]1O [Comparative Example 2, reference compound]
- Production rate of Alvocidib (pH5.0, 0 hr): 2.0%
- Residual rate (pH5.0, 0 hr): 96.6%
- Stability in buffer solution at pH 5 (pH 5, 37° C., up to 2 or 3 hours): unstable
- Conversion to Alvocidib at pH 5 within 3 hours (pH 5, 37° C., within 3 hours): mostly converted to Alvocidib
- Production rate of Alvocidib (pH5.0, 0.5 hr): 31.8%
- Residual rate (pH5.0, 0.5 hr): 66.9%
- Production rate of Alvocidib (pH5.0, 1 hr): 53.2%
- Residual rate (pH5.0, 1 hr): 45.1%
- Production rate of Alvocidib (pH5.0, 2 hr): 79.0%
- Residual rate (pH5.0, 2 hr): 19.3%
- Production rate of Alvocidib (pH5.0, 3 hr): 90.0%
- Residual rate (pH5.0, 3 hr): 8.5%
- Production rate of Alvocidib (pH5.5, 0 hr): 2.4%
- Residual rate (pH5.5, 0 hr): 96.4%
- Production rate of Alvocidib (pH5.5, 0.5 hr): 70.5%
- Residual rate (pH5.5, 0.5 hr): 28.0%
- Production rate of Alvocidib (pH5.5, 1 hr): 90.8%
- Residual rate (pH5.5, 1 hr): 7.5%
- Production rate of Alvocidib (pH5.5, 2 hr): 97.6%
- Residual rate (pH5.5, 2 hr): 0.6%
- Production rate of Alvocidib (pH5.5, 3 hr): 98.6%
- Residual rate (pH5.5, 3 hr): 0.0%
- Production rate of Alvocidib (pH6.0, 0 hr): 3.3%
- Residual rate (pH6.0, 0 hr): 95.1%
- Production rate of Alvocidib (pH6.0, 0.5 hr): 95.7%
- Residual rate (pH6.0, 0.5 hr): 2.5%
- Production rate of Alvocidib (pH6.0, 1 hr): 98.2%
- Residual rate (pH6.0, 1 hr): 0.0%
- Production rate of Alvocidib (pH6.0, 2 hr): 98.3%
- Residual rate (pH6.0, 2 hr): 0.0%
- Production rate of Alvocidib (pH6.0, 3 hr): 98.6%
- Residual rate (pH6.0, 3 hr): 0.0%
- Production rate of Alvocidib (pH6.5, 0 hr): 7.1%
- Residual rate (pH6.5, 0 hr): 91.5%
- Production rate of Alvocidib (pH6.5, 0.5 hr): 98.3%
- Residual rate (pH6.5, 0.5 hr): 0.0%
- Production rate of Alvocidib (pH6.5, 1 hr): 98.3%
- Residual rate (pH6.5, 1 hr): 0.0%
- Production rate of Alvocidib (pH6.5, 2 hr): 98.5%
- Residual rate (pH6.5, 2 hr): 0.0%
- Production rate of Alvocidib (pH6.5, 3 hr): 98.2%
- Residual rate (pH6.5, 3 hr): 0.0%
- Production rate of Alvocidib (pH7.0, 0 hr): 17.0%
- Residual rate (pH7.0, 0 hr): 81.8%
- Production rate of Alvocidib (pH7.0, 0.5 hr): 98.6%
- Residual rate (pH7.0, 0.5 hr): 0.0%
- Production rate of Alvocidib (pH7.0, 1 hr): 98.3%
- Residual rate (pH7.0, 1 hr): 0.0%
- Production rate of Alvocidib (pH7.0, 2 hr): 98.3%
- Residual rate (pH7.0, 2 hr): 0.0%
- Production rate of Alvocidib (pH7.0, 3 hr): 98.3%
- Residual rate (pH7.0, 3 hr): 0.0%
- Production rate of Alvocidib (pH7.4, 0 hr): 34.5%
- Residual rate (pH7.4, 0 hr): 63.9%
- Production rate of Alvocidib (pH7.4, 0.5 hr): 98.4%
- Residual rate (pH7.4, 0.5 hr): 0.0%
- Production rate of Alvocidib (pH7.4, 1 hr): 98.2%
- Residual rate (pH7.4, 1 hr): 0.0%
- Production rate of Alvocidib (pH7.4, 2 hr): 98.5%
- Residual rate (pH7.4, 2 hr): 0.0%
- Production rate of Alvocidib (pH7.4, 3 hr): 98.5%
- Residual rate (pH7.4, 3 hr): 0.0%
